Measured values as given in patent publication US20090226500A1, “SUTURES AND ANTI-SCARRING AGENTS” (Angiotech Pharmaceuticals, Inc, priority 2006, published 2009).
Entries after “also recorded” stand apart in the source; their conditions may differ.

Assays:
[1] = test system: MCP-1 production by THP-1 cells; assay: MCP-1 production by macrophages; type: cell-based, human; settings: THP-1 cells stimulated with opsonized zymosan, 24 hours; read-out: IC50 MCP-1 production
Outline: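 THP-1 cells (1×10^6/well, 10% FCS) stimulated with 1 mg/ml serum-opsonized zymosan plus compound added from DMSO stocks at 1/1000, 24 h at 37° C. MCP-1 in supernatants quantified by sandwich ELISA (TMB read-out) against a recombinant human MCP-1 standard curve, triplicates, background-subtracted.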

[2] = test system: nitric oxide production by macrophages (murine macrophage cell line RAW 264.7); assay: Nitric oxide production by macrophages; type: cell-based
[3] = test system: TNFα production by THP-1 cells; assay: TNF-alpha production by macrophages; type: cell-based, human; settings: THP-1 cells stimulated with opsonized zymosan, 24 hours; read-out: IC50 TNFα production
Description: The human macrophage cell line, THP-1 was plated in a 12-well plate such that each well contains 1×10^6 cells in 2 ml of media containing 10% FCS. Opsonized zymosan was prepared by resuspending 20 mg of zymosan A in 2 ml of ddH2O and homogenizing until a uniform suspension was obtained. Homogenized zymosan was pelleted at 250 g and resuspended in 4 ml of human serum for a final concentration of 5 mg/ml and incubated in a 37° C. water bath for 20 minutes to enable opsonization.
THP-1 cells were stimulated to produce TNFα by the addition of 1 mg/ml opsonized zymosan. […] Each drug concentration was tested in triplicate wells. Plates were incubated at 37° C. for 24 hours.
After a 24-hour stimulation, supernatants were collected to quantify TNFα production. TNFα concentrations in the supernatants were determined by ELISA using recombinant human TNFα to obtain a standard curve A 96-well MaxiSorb plate was coated with 100 μL of anti-human TNFα Capture Antibody diluted in Coating Buffer (0.1M sodium carbonate pH 9 5) overnight at 4° C. The dilution of Capture Antibody used was lot-specific and was determined empirically. Capture antibody was then aspirated and the plate washed 3 times with Wash Buffer (PBS, 0.05% TWEEN-20) Plates were blocked for 1 hour at room temperature with 200 μL/well of Assay Diluent (PBS, 10% FCS pH 7.0). After blocking, plates were washed 3 times with Wash Buffer. […] Sample supernatants and standards were assayed in triplicate and were incubated at room temperature for 2 hours after addition to the plate coated with Capture Antibody. The plates were washed 5 times and incubated with 100 μL of Working Detector (biotinylated anti-human TNFα detection antibody+avidin-HRP) for 1 hour at room temperature. Following this incubation, the plates were washed 7 times and 100 μL of Substrate Solution (tetramethylbenzidine, H2O2) was added to plates and incubated for 30 minutes at room temperature. […] Mean absorbance was determined from triplicate data readings and the mean background was subtracted. TNFα concentration values were obtained from the standard curve.

[4] = test system: Primary human smooth muscle cells; assay: Smooth muscle cell migration; type: cell-based; settings: chemotaxis to rhPDGF-BB 10 ng/ml, 4 hours
Description: Primary human smooth muscle cells were starved of serum in smooth muscle cell basal media containing insulin and human basic fibroblast growth factor (bFGF) for 16 hours prior to the assay. For the migration assay, cells were trypsinized to remove cells from flasks, washed with migration media and diluted to a concentration of 2-2.5×10^5 cells/ml in migration media. Migration media consists of phenol red free Dulbecco's Modified Eagle Medium (DMEM) containing 0.35% human serum albumin. A 100 μL volume of smooth muscle cells (approximately 20,000-25,000 cells) was added to the top of a Boyden chamber assembly (Chemicon QCM CHEMOTAXIS 96-well migration plate). To the bottom wells, the chemotactic agent, recombinant human platelet derived growth factor (rhPDGF-BB) was added at a concentration of 10 ng/ml in a total volume of 150 μL. Paclitaxel was prepared in DMSO at a concentration of 10^−2 M and serially diluted 10-fold to give a range of stock concentrations (10^−8 M to 10^−2 M). […]
At the end of the 4-hour period, cells in the top chamber were discarded and the smooth muscle cells attached to the underside of the filter were detached for 30 minutes at 37° C. in Cell Detachment Solution (Chemicon). […] Fluorescence was read in a fluorescence microplate reader at ˜480 nm excitation wavelength and ˜520 nm emission maxima. […]

AP-1 [5] = assay: IL-1 stimulated AP-1 transcriptional activity (CAT reporter) in chondrocytes; type: cell-based; settings: 10^−7 to 10^−5 M
Smooth muscle cells = assay: Proliferation of smooth muscle cells; type: cell-based; settings: 72 hours, CYQUANT; read-out: IC50 proliferation of smooth muscle cells
Outline: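 Smooth muscle cells at 600 cells/well, exposed to paclitaxel (DMSO stocks 10^−8 to 10^−2 M) in triplicate for 72 h at 37 °C. Proliferation read with CyQUANT GR dye in lysis buffer.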

[6] = test system: murine RAW 264.7 macrophage cell line; assay: Proliferation of murine RAW 264.7 macrophage cell line; type: cell-based; settings: Mus musculus, RAW264.7
stromelysin (MMP-3) = assay: IL-1 induced stromelysin (MMP-3) mRNA expression in chondrocytes; type: cell-based
Description: (§1) Cells were treated with paclitaxel at various concentrations (10^−7 to 10^−5 M) for 24 hours, then treated with IL-1β (20 ng/ml) for additional 18 hours in the presence of paclitaxel. Total RNA was isolated, and the MMP-1 mRNA levels were determined by Northern blot analysis. The blots were subsequently stripped and re-probed with ^32P-radiolabeled rat GAPDH cDNA, which was used as a housekeeping gene. The results shown are representative of four independent experiments (FIG. 10D). Quantitation of collagenase-1 and stromelysin-expression mRNA levels were conducted. The MMP-1 and MMP-3 expression levels were normalized with GAPDH.

[7] = test system: CAM vasculature (angiogenesis); assay: Chick chorioallantoic membrane (CAM) assay; settings: for Inhibition/n: 48 hours
human fibroblasts = assay: Cell proliferation of fibroblasts; type: cell-based; settings: Fibroblast, 72 hours, CYQUANT, read-out: IC50 cell proliferation of fibroblasts
Outline: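 Human fibroblasts plated at 600 cells/well, attached overnight, then exposed to drug in triplicate for 72 h at 37°C. Cell content read with CYQUANT GR dye in lysis buffer after 3-5 min at room temperature.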

collagenase (MMP-1) = assay: IL-1 induced collagenase (MMP-1) mRNA expression in chondrocytes; type: cell-based, calf
Description: as §1
Primary chondrocyte cultures were freshly isolated from calf cartilage. The cells were plated at 2.5×10^6 per ml in 100×20 mm culture dishes and incubated in Ham's F12 medium containing 5% FBS overnight at 37° C. The cells were starved in serum-free medium overnight and then treated with anti-microtubule agents at various concentrations for 6 hours. IL-1 (20 ng/ml) was then added to each plate and the plates incubated for an additional 18 hours. Total RNA was isolated by the acidified guanidine isothiocyanate method and subjected to electrophoresis on a denatured gel Denatured RNA samples (15 μg) were analyzed by gel electrophoresis in a 1% denatured gel, transferred to a nylon membrane and hydridized with the ^32P-labeled collagenase cDNA probe. ^32P-labeled glyceraldehyde phosphate […] (GAPDH) cDNA was used as an internal standard to ensure roughly equal loading. The exposed films were scanned and quantitatively analyzed with IMAGEQUANT.

AP-1 [8] = assay: IL-1 induced AP-1 DNA binding activity (gel mobility shift); type: cell-based; settings: chondrocyte lysates, pretreated 10^−7 to 10^−5 M for 24 hours
Description: Binding activity was assayed with a radiolabeled human AP-1 sequence probe and gel mobility shift assay. Extracts from chondrocytes untreated or treated with various amounts of paclitaxet (10^−7 to 10^−5 M) followed by IL-1β (20 ng/ml) were incubated with excess probe on ice for 30 minutes, followed by non-denaturing gel electrophoresis (FIG. 10B). The “com” lane contains excess unlabeled AP-1 oligonucleotide. The results shown are representative of three independent experiments.

C/C(=N\N=C(N)N)c1cc(NC(=O)CCCCCCCCC(=O)Nc2cc(/C(C)=N/N=C(N)N)cc(/C(C)=N/N=C(N)N)c2)cc(/C(C)=N/N=C(N)N)c1 [CNI-1493]
IC50 [1]: 0.02 nM
IC50 [2]: 249 nM
IC50 [3]: 0.15 nM

CC(=O)O[C@H]1C(=O)[C@@]2(C)[C@H]([C@H](OC(=O)c3ccccc3)[C@]3(O)C[C@H](OC(=O)[C@H](O)[C@@H](NC(=O)c4ccccc4)c4ccccc4)C(C)=C1C3(C)C)[C@]1(OC(C)=O)CO[C@@H]1C[C@@H]2O [paclitaxel, 5β,20-epoxy-1,2 alpha,4,7β,10β,13 alpha-hexahydroxytax-11-en-9-one-4,10-diacetate-2-benzoate-13-(alpha-phenylhippurate)]
IC50 [4]: 0.76 nM
IL-1 induced AP-1 reporter gene CAT activity (AP-1 [5]): decreased CAT activity in a concentration dependent manner; also recorded: reduced
IC50 (Smooth muscle cells): 7 nM
IC50 [6]: 134 nM
IL-1 induced stromelysin mRNA levels (stromelysin (MMP-3); at 10^−5 M): complete inhibition
concentration that inhibits stromelysin expression (stromelysin (MMP-3); chondrocytes in vitro): 10^−6 M
IL-1 induced stromelysin mRNA levels (stromelysin (MMP-3); chondrocytes, pretreatment for 24 hours): significantly reduced; also recorded: inhibited
Inhibition/n ([7]; 0.25 μg in methylcellulose (10 μl)): 2/11
Inhibition/n ([7]; 0.5 μg in methylcellulose (10 μl)): 6/11
Inhibition/n ([7]; 1 μg in methylcellulose (10 μl)): 6/15
Inhibition/n ([7]; 5 μg in methylcellulose (10 μl)): 20/27
Inhibition/n ([7]; 10 μg in methylcellulose (10 μl)): 16/21
Inhibition/n ([7]; 30 μg in methylcellulose (10 μl)): 31/31
angiogenesis ([7]; 48 hours after application to the CAM): inhibited
avascular gradient scale ([7]; maximal avascular zone within 48 hours, depending on concentration): 3
IC50 (human fibroblasts): 10 to 100 nM
IL-1 induced collagenase mRNA levels (collagenase (MMP-1); at 10^−5 M): complete inhibition
concentration that inhibits IL-1-induced collagenase expression (collagenase (MMP-1); chondrocytes in vitro): 10^−6 M
IL-1 induced collagenase mRNA levels (collagenase (MMP-1); chondrocytes, pretreatment before IL-1): significantly reduced; also recorded: inhibited
IL-1 induced AP-1 binding activity (AP-1 [8]): decreased
